Molecular target: T1, TGF-β2-α2M* complex (Homo sapiens, UniProt P01023)
T1 construct: was purified from pooled citrate-treate human plasma; from tissue; host or cells: pooled citrate-treated human plasma
T1 sequence (P01023 24-1474): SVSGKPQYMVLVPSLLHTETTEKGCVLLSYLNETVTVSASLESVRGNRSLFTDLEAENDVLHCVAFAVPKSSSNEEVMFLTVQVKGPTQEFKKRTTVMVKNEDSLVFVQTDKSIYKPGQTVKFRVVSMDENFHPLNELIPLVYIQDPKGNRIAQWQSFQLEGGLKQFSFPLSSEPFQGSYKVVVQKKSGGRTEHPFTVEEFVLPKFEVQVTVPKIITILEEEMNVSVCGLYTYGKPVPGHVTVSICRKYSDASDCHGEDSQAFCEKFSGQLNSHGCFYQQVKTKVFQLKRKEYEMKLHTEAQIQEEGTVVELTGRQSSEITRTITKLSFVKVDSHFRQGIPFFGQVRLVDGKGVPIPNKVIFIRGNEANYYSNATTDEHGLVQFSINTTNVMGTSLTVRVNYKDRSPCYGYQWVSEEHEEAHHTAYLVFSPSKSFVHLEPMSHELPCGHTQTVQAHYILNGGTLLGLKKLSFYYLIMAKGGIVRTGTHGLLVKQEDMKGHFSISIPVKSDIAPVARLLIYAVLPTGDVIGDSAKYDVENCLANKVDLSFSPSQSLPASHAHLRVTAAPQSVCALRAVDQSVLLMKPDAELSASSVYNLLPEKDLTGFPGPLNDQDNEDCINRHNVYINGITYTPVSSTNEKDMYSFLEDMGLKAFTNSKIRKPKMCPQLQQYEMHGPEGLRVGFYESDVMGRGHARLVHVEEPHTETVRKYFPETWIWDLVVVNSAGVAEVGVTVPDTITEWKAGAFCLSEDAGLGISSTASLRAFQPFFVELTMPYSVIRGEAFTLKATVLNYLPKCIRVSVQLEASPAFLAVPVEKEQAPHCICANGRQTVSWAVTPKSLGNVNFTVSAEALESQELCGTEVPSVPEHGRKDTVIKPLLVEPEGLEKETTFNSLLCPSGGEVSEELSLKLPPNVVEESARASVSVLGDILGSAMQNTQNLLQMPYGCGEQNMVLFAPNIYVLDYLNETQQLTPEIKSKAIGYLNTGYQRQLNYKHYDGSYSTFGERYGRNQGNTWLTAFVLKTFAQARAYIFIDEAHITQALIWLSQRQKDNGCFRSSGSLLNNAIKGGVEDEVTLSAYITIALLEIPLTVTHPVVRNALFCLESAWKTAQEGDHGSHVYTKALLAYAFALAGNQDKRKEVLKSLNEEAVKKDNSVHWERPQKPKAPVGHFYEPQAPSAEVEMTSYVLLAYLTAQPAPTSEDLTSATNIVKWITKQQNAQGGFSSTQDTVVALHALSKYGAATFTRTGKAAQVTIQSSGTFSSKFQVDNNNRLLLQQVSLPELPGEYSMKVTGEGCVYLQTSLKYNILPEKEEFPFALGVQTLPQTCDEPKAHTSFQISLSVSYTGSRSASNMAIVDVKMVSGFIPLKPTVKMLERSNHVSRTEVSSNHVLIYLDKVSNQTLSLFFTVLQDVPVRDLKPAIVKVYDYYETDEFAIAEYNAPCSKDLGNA
Test: Inhibition of 125I-TGF-β2 and α2M* complex formation (5% non-denaturing PAGE)
Type: binding
Conditions: 50% inhibition; read-out: concentration that inhibited 50% of the complex formation of α2M* and 125I-TGF-β2
Method: TGF- ? isoforms bind to α2M* with different affinities: TGF ? β2>TGF ? β1 ( active sites of TGF ? β1 and TGF- ? 2 responsible for high-affinity binding to ? 2M* are disti from the low-affinity ? 2M* binding site in TGF- ? 3 (19). To determine if fatty acids differentially affect the binding of TGF- ? isoforms to ? 2M*, the effects of various concentrations of arachidonic acid and myristic acid on complex formation of ^125I-labeled TGF ? β isoforms and ? 2M were determined*. […] It inhibited 30% of the complex form . α2M* and TGF ? β2 and TGF ? β3 at 100 and >250 μM, respectively. Arachidon polyunsaturated fatty acid, was a stronger inhibitor of complex formation of ? 2M* and TGF-.β2/TGF ? β3. It inhibited 50% of the complex formation of ? 2M* and ^125I-TGF- ? 2 at 50 μM (FIG. 3A). The observation that myristic acid and arachidonic acid inhibited complex formation of ^125I-TGF- ? […] 2M* complexes in the reaction mixtures were then analyzed by 7.5% SDS-PAGE and autoradiography.
Complex formation of ^125I-TGF-β and ? […] After 30 min at room temperature, the complex formation of ^125I-TGF- ? and. α2M* was determined by 5% non-denaturing polyacrylamide gel electrophoresis (PAGE) or by 7.5% SDS-PAGE following cross-linking by 0.6 mM DSS. After electrophoresis, the gel was stained with Coomassie blue and analyzed by autoradiography. […] 2M* was quantified using a PhosphoImager (Fuji).

CCCCC/C=C\C/C=C\C/C=C\C/C=C\CCCC(=O)O [arachidonic acid]
IC50: 50 µM

Source: patent publication US20040229791A1, “Compositions and methods of modulating TGF-beta activity by fatty acids” (priority 2002, published 2004)
